Laboratory results: patent publication US20260250290A1 (BRISTOL-MYERS SQUIBB COMPANY, priority 2023, published 2026)
Structures can show the parent of a compound that is named as a salt.

What follows are compounds tested against T1, full length SGK1 (Homo sapiens, UniProt O00141) (assay: SGK1 inhibition Assay A (Caliper LabChip electrophoretic separation of fluorescent peptide substrate and phosphorylated product)). Conditions: Assay A; 20 μM ATP, 40 min incubation; read-out: SGK1 IC50.
T1 construct: 125 μM full length SGK1 (Life Technologies Part #PR7358A); purchased Life Technologies PR7358A
T1 sequence (O00141 1-431): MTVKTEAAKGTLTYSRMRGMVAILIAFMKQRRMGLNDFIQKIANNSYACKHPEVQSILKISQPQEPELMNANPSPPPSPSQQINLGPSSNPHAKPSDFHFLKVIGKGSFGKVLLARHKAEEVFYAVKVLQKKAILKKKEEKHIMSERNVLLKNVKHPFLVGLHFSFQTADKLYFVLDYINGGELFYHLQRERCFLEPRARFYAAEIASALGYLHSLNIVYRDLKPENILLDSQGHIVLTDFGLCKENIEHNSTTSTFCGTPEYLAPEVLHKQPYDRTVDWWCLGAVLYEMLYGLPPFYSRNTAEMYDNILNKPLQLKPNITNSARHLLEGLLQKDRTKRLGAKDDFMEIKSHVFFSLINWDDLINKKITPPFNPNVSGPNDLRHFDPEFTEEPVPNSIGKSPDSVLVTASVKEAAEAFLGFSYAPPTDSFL
Format: biochemical

IC50 [nM] | Compound
9 | CC(=O)N1CC=C(c2cc(N3CCC[C@@H](NC(=O)c4cccc(N5C[C@H]6CC[C@@H](C5)N6)n4)C3)c3c(N)ncnn23)C1 [Example 814, N—((R)-1-(7-(1-acetyl-2,5-dihydro-1H-pyrrol-3-yl)-4-aminopyrrolo[2,1-f][1,2,4]triazin-5-yl)piperidin-3-yl)-6-((1R,5S)-3,8-diazabicyclo[3.2.1]octan-3-yl)picolinamide]
104 | N#Cc1ccc(-c2cc(N3CCC[C@@H](NC(=O)c4n[nH]c5ccccc45)C3)c3c(N)ncnn23)cn1 [Example 648, (R)-N-(1-(4-amino-7-(6-cyanopyridin-3-yl)pyrrolo[2,1-f][1,2,4]triazin-5-yl)piperidin-3-y1)-1H-indazole-3-carboxamide]
6 | CN(C)CCOc1cc(Cl)sc1C(=O)N[C@@H]1CCCN(c2cc(-c3ccc(-n4cnc(C#N)n4)nc3)n3ncnc(N)c23)C1 [Example 191, (R)-N-(1-(4-amino-7-(6-(3-cyano-1H-1,2,4-triazol-1-yl)pyridin-3-yl)pyrrolo[2,1-f][1,2,4]triazin-5-yl)piperidin-3-yl)-5-chloro-3-(2-(dimethylamino)ethoxy) thiophene-2-carboxamide]
5 | CN(C)CCOc1cc(Cl)sc1C(=O)N[C@@H]1CCCN(c2cc(C3=CCN(C(=O)C4CC4)C3)n3ncnc(N)c23)C1 [Example 177, (R)-N-(1-(4-amino-7-(1-(cyclopropanecarbonyl)-2,5-dihydro-1H-pyrrol-3-yl)pyrrolo[2,1-f][1,2,4]triazin-5-yl)piperidin-3-yl)-5-chloro-3-(2-(dimethylamino)ethoxy) thiophene-2-carboxamide, 2 TFA]
12 | Nc1ncnn2c(-c3cc(F)nc(F)c3)cc(N3CCC[C@@H](NC(=O)c4ccc(Cl)s4)C3)c12 [Example 231]
2 | Cc1ccc(C(=O)N[C@@H]2CCCN(c3cc(-c4ccncc4)n4ncnc(N)c34)C2)s1 [Example 128, N-[(3R)-1-[4-amino-7-(pyridin-4-yl)pyrrolo[2,1-f][1,2,4]triazin-5-yl]piperidin-3-yl]-5-methylthiophene-2-carboxamide]
1 | N#Cc1ccc(-c2cc(N3CCC[C@@H](NC(=O)c4sc(Cl)cc4OC4CC5(CNC5)C4)C3)c3c(N)ncnn23)cn1 [Example 591]
12 | Cc1cc(-c2cc(N3CCC[C@@H](NC(=O)c4sc(C(F)F)cc4OC4COC4)C3)c3c(N)ncnn23)cnc1C#N [Example 436, (R)-N-(1-(4-amino-7-(6-cyano-5-methylpyridin-3-yl)pyrrolo[2,1-f][1,2,4]triazin-5-yl)piperidin-3-yl)-5-(difluoromethyl)-3-(oxetan-3-yloxy)thiophene-2-carboxamide]
98 | CC(=O)N1CC=C(c2cc(N3CCC[C@@H](NC(=O)c4cc(C5CC5)n(C)n4)C3)c3c(N)ncnn23)C1 [Example 739, (R)-N-(1-(7-(1-acetyl-2,5-dihydro-1H-pyrrol-3-yl)-4-aminopyrrolo[2,1-f][1,2,4]triazin-5-yl)piperidin-3-yl)-5-cyclopropyl-1-methyl-1H-pyrazole-3-carboxamide]
11 | CC(=O)N1CC=C(c2cc(N3CCC[C@@H](NC(=O)c4sc(C(F)F)cc4N4CCOCC4)C3)c3c(N)ncnn23)C1 [Example 319, (R)-N-(1-(7-(1-acetyl-2,5-dihydro-1H-pyrrol-3-yl)-4-aminopyrrolo[2,1-f][1,2,4]triazin-5-yl)piperidin-3-yl)-5-(difluoromethyl)-3-morpholinothiophene-2-carboxamide]
15 | Nc1ncnn2c(-c3ccc(=O)n(CC(F)F)c3)cc(N3CCC[C@@H](NC(=O)c4sc(Cl)cc4OCC(=O)N4CCCC4)C3)c12 [Example 422, (R)-N-(1-(4-amino-7-(1-(2,2-difluoroethyl)-6-oxo-1,6-dihydropyridin-3-yl)pyrrolo[2,1-f][1,2,4]triazin-5-yl)piperidin-3-yl)-5-chloro-3-(2-oxo-2-(pyrrolidin-1-yl)ethoxy) thiophene-2-carboxamide]
274 | CS(=O)(=O)c1ccc(-c2cc(N3CCC[C@@H](NC(=O)c4ccccc4Cl)C3)c3c(N)ncnn23)cc1 [Example 19, (R)-N-(1-(4-amino-7-(4-(methylsulfonyl)phenyl)pyrrolo[2,1-f][1,2,4]triazin-5-yl)piperidin-3-yl)-2-chlorobenzamide]
16 | COC(=O)N1CC=C(c2cc(N3CCC[C@@H](NC(=O)c4sc(C)nc4OCCN(C)C)C3)c3c(N)ncnn23)C1 [Example 353, Methyl (R)-3-(4-amino-5-(3-(4-(2-(dimethylamino)ethoxy)-2-methylthiazole-5-carboxamido)piperidin-1-yl)pyrrolo[2,1-f][1,2,4]triazin-7-yl)-2,5-dihydro-1H-pyrrole-1-carboxylate]
11 | Nc1ncnn2c(C3=CCN(C(=O)C4CCS(=O)(=O)C4)C3)cc(N3CCC[C@@H](NC(=O)c4ccc(Cl)s4)C3)c12 (stereo partly drawn) [Example 905, N-((3R)-1-(4-amino-7-(1-(1,1-dioxidotetrahydrothiophene-3-carbonyl)-2,5-dihydro-1H-pyrrol-3-yl)pyrrolo[2,1-f][1,2,4]triazin-5-yl)piperidin-3-y1)-5-chlorothiophene-2-carboxamide]
22 | CC(C)(C)OC(=O)N1CC=C(c2ccc(C(=O)N[C@@H]3CCCN(c4cc(-c5ccnc(C(F)F)c5)n5ncnc(N)c45)C3)s2)CC1 [Example 545, tert-butyl (R)-4-(5-((1-(4-amino-7-(2-(difluoromethyl)pyridin-4-yl)pyrrolo[2,1-f][1,2,4]triazin-5-yl)piperidin-3-yl)carbamoyl)thiophen-2-yl)-3,6-dihydropyridine-1(2H)-carboxylate]
112 | COc1ccc(C)cc1C(=O)N[C@@H]1CCCN(c2cc(-c3ccc(S(C)(=O)=O)cc3)n3ncnc(N)c23)C1 [Example 57, (R)-N-(1-(4-amino-7-(4-(methylsulfonyl)phenyl)pyrrolo[2,1-f][1,2,4]triazin-5-yl)piperidin-3-yl)-2-methoxy-5-methylbenzamide, TFA]
4 | CN(C)CCOc1cc(Cl)sc1C(=O)N[C@@H]1CCCN(c2cc(C3=CCN(C(=O)CC(F)(F)F)C3)n3ncnc(N)c23)C1 [Example 176, (R)-N-(1-(4-amino-7-(1-(3,3,3-trifluoropropanoyl)-2,5-dihydro-1H-pyrrol-3-yl)pyrrolo[2,1-f][1,2,4]triazin-5-yl)piperidin-3-yl)-5-chloro-3-(2-(dimethylamino)ethoxy) thiophene-2-carboxamide, 2 TFA]
213 | Nc1ncnn2c(-c3cn(CC(=O)O)nn3)cc(N3CCC[C@@H](NC(=O)c4ccc(Cl)s4)C3)c12 [Example 867, (R)-2-(4-(4-amino-5-(3-(5-chlorothiophene-2-carboxamido)piperidin-1-yl)pyrrolo[2,1-f][1,2,4]triazin-7-yl)-1H-1,2,3-triazol-1-yl)acetic acid]
735 | CS(=O)(=O)c1ccc(-c2cc(N3CCC[C@@H](NC(=O)c4cn5c(n4)CCCC5)C3)c3c(N)ncnn23)cc1 [Example 44]
263 | CS(=O)(=O)c1ccc(-c2cc(N3CCCC(NC(=O)Nc4ccccc4)C3)c3c(N)ncnn23)cc1 (centres unmarked) [Example 9, 1-(1-(4-amino-7-(4-(methylsulfonyl)phenyl)pyrrolo[2,1-f][1,2,4]triazin-5-yl)piperidin-3-yl)-3-phenylurea, TFA]
67 | CC(=O)N1CC=C(c2cc(N3CCC[C@@H](NC(=O)c4ccc(-n5ccnc5)cc4)C3)c3c(N)ncnn23)C1 [Example 460, (R)-N-(1-(7-(1-acetyl-2,5-dihydro-1H-pyrrol-3-yl)-4-aminopyrrolo[2,1-f][1,2,4]triazin-5-yl)piperidin-3-yl)-4-(1H-imidazol-1-yl)benzamide]
25 | CS(=O)(=O)c1ccc(-c2cc(N3CCC[C@@H](NC(=O)c4cc(Cl)no4)C3)c3c(N)ncnn23)cc1 [Example 74, (R)-N-(1-(4-amino-7-(4-(methylsulfonyl)phenyl)pyrrolo[2,1-f][1,2,4]triazin-5-yl)piperidin-3-yl)-3-chloroisoxazole-5-carboxamide, TFA]
19 | Nc1ncnn2c(-c3ccnc(C(F)F)c3)cc(N3CCC[C@@H](NC(=O)c4sc(C(F)F)cc4N4CC5(COC5)C4)C3)c12 [Example 345, (R)—N-(1-(4-amino-7-(2-(difluoromethyl)pyridin-4-yl)pyrrolo[2,1-f][1,2,4]triazin-5-yl)piperidin-3-yl)-5-(difluoromethyl)-3-(2-oxa-6-azaspiro[3.3]heptan-6-yl)thiophene-2-carboxamide]
188 | COC(=O)N1CC=C(c2cc(N3CCC[C@@H](NC(=O)c4cc5ccc(C(F)(F)F)cc5[nH]4)C3)c3c(N)ncnn23)C1 [Example 500, methyl (R)-3-(4-amino-5-(3-(6-(trifluoromethyl)-1H-indole-2-carboxamido)piperidin-1-yl)pyrrolo[2,1-f][1,2,4]triazin-7-yl)-2,5-dihydro-1H-pyrrole-1-carboxylate]

Compound | IC50 [nM]
tert-butyl (R)-3- ((2-((1-(4-amino- 7-(6-cyanopyridin-3- yl)pyrrolo[2,1-f] [1,2,4]triazin-5- yl)piperidin-3- yl)carbamoyl) benzo[b]thiophen- 3-yl)oxy)azetidine- 1-carboxylate [Example 672] | 65
CN1CCN(c2cccc(C(=O)N[C@@H]3CCCN(c4cc(-c5ccc(-n6cncn6)nc5)n5ncnc(N)c45)C3)n2)CC1 [Example 800, (R)-N-(1-(7-(6-(1H-1,2,4-triazol-1-yl)pyridin-3-yl)-4-aminopyrrolo[2,1-f][1,2,4]triazin-5-yl)piperidin-3-yl)-6-(4-methylpiperazin-1-yl)picolinamide] | 17
